In publication PMC9376946, “Peptide-RNA Coacervates as a Cradle for the Evolution of Folded Domains” (Journal of the American Chemical Society, 2022):

Tests used:
[1] = test system: polyU; experiment: Coacervate (droplet) formation with polyU, optical microscopy; assay type: physicochemical
Method: Optical microscopy images of phase-separated samples were taken at the de Picciotto Cancer Cell Observatory Life Sciences Core Facilities (Weizmann Institute of Science) using a 100× objective (oil immersion) on a Leica DMI8 microscope with differential interface contrast. We used 1–2 μL of the sample to make a small drop in an imaging chamber produced by attaching a coverslip to a clean glass slide using a thin strip of double-sided tape (AJ Sign World). Images were processed using the software package Fiji (NIH).
Lyophilized, spin-labeled peptides were dissolved in Milli-Q water and centrifuged at 4000 rpm for 10 min to remove insoluble aggregates. The soluble fractions were used to prepare stock solutions of 250–500 μM peptide. Labeled peptide concentrations were determined by comparing the area under the curve of the EPR signal against that of standard solutions of 10–285 μM TEMPO. For the EPR measurements in D2O, 200 μL of the stock solution was lyophilized and re-dissolved in D2O. The concentration of the unlabeled peptide stock solutions was determined using the bicinchoninic acid assay (Thermo Fisher Scientific) and ranged from 0.8 to 1.2 mM peptide. A stock solution of 500 mM MES, pH 5.6 was used to adjust all samples to a final concentration of 50 mM MES, pH 5.6. Aliquots of 10 mg/mL polyuridylic acid (polyU; Sigma Aldrich) were prepared in Milli-Q water and diluted as necessary. For CW-EPR measurements, a quartz capillary of 0.6 mm i.d. and 0.84 mm o.d. was filled with 7–8 μL of the sample and sealed with Critoseal (Fisherbrand, Fisher Scientific) at one end. A single capillary was placed in an X-band EPR tube of 2 mm i.d. and 2.4 mm o.d. for measurements, except for spin concentration below 50 μM, where two capillaries were used.
Each sample was freshly prepared and the time to collect […] CW-EPR data was 30–40 min.

[2] = test system: polyU; conditions: ref [17]; cited from earlier work
Description: The basis for the work presented here is the construct Precursor-Arg (PA).[17] PA consists of a single helix-hairpin-helix (HhH) motif and is constructed from an alphabet of only 10 amino acid types. The sequence of PA (Table 1) is biased specifically for those amino acids that were thought to be present on the early earth[35] and is the result of an ancestor sequence reconstruction of the (HhH)2-Fold protein family followed by an experimental deconstruction.[17] PA has two positively charged patches—located at the N-terminus of the first α-helix (residues 1–4, RIRR) and on the second α-helix ... || Using the ColabFold implementation of AlphaFold2,[33] a model of a putative PA dimer was predicted (Figure 1A). […] The dimerization potential of PA was further confirmed by MD simulations (Figure S6). […] This option relies on the dimer having conformations where positive and negative charges are separated, allowing for efficient bidentate binding to the polyU.

[3] = earlier study, trifluoroethanol titration followed by CD; ref [17]; cited from earlier work

coacervate formation with polyU ([1]; concentrations not given): did not form coacervates with polyU
Sequence: RVRRSEIPLGIELEAGTLRLARRPEIRVA [SA]
coacervate formation with polyU ([1]; unlabeled peptide, 1 mg/mL polyU, aggregation also previously reported, ref [17]): did not form coacervates but rather aggregates | coacervate formation or precipitation with polyU (earlier study) [2]: precipitates with polyU rather than forms coacervates | α-helical propensity [3]: lower α-helical propensity than PA
